From patent publication US9656990B2, “Cathepsin cysteine protease inhibitors” (Merck Sharp & Dohme Corp., priority 2014, dated 2017)

How the values were obtained:
[1] = biological target: T1, human cathepsin F (Homo sapiens, UniProt Q9UBX1); experiment: Cathepsin F Assay; format: biochemical; conditions: IP from dose response curve; Z-Phe-Arg-AMC substrate, pH 5.5; read-out: hCat F (IP (nM))
T1 sequence (Q9UBX1 271-484): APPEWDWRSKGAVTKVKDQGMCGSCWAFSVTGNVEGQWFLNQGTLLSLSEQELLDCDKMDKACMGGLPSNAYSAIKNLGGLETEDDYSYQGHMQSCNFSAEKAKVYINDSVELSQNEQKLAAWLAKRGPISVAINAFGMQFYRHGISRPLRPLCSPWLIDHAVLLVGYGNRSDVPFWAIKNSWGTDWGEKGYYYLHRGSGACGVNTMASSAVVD
Summary of the method: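 Human cathepsin F (10 nM) preincubated 15 min at room temperature with compounds in 50 mM MES pH 5.5, 2.5 mM EDTA, 2.5 mM DTT, 10% DMSO. Z-Phe-Arg-AMC (8 μM) added; AMC release read by fluorescence (Ex 360/Em 460 nm) over 20 min, inhibition fit to dose-response model.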

[2] = biological target: human cathepsin K (UniProt P43236, Y175D/V274L, species not given); experiment: Cathepsin K Assay; format: biochemical; conditions: IP from dose response curve; Z-Leu-Arg-AMC substrate, pH 5.5; read-out: hrbCat K (IP (nM))

Compound	IC50 [1] [nM]	IC50 [2] [nM]
CN=S1(=O)CCN(c2ccc(-c3cn(-c4ncccc4F)nc3[C@@H]3CC(F)(F)CC[C@H]3C(=O)N[C@@H](C)C#N)cc2)CC1 [Example 46, (1R,2R)-N-((S)-1-cyanoethyl)-4,4-difluoro-2-(1-(3-fluoropyridin-2-yl)-4-(4-(1-(methylimino)-1-oxidothiomorpholino)phenyl)-1H-pyrazol-3-yl)cyclohexanecarboxamide]	6620	5.78
CC(C)[C@@H](C#N)NC(=O)[C@@H]1CC(F)(F)CC[C@H]1c1nn(-c2ccc(F)cn2)c(CO)c1-c1ccc(N2CCS(=O)(=O)CC2)cc1 [Example 69, (1R,2R)-N-((S)-1-cyano-2-methylpropyl)-2-(4-(4-(1,1-dioxidothiomorpholino)phen-yl)-1-(5-fluoropyridin-2-yl)-5-(hydroxymethyl)-1H-pyrazol-3-yl)-5,5-difluorocyclohexanecarbox-amide]	225	2.68
CCN=S1(=O)CCN(c2ccc(-c3cn(-c4ccc(F)cc4)nc3[C@@H]3CCCC[C@H]3C(=O)NC3(C#N)CC3)cc2)CC1 [Example 138, (1R,2R)-N-(1-cyanocyclopropyl)-2-(4-(4-(1-(ethylimino)-1-oxidothiomorpholino)phenyl)-1-(4-fluorophenyl)-1H-pyrazol-3-yl)cyclohexanecarboxamide]	725	1.62
N#Cc1cccc(-n2cc(-c3ccc(N4CCS(=O)(=O)CC4)cc3)c([C@@H]3CCCC[C@H]3C(=O)NC3(C#N)CC3)n2)c1 [Example 101, (1R,2R)-N-(1-cyanocyclopropyl)-2-(1-(3-cyanophenyl)-4-(4-(1,1-dioxidothiomorpholino)phen-yl)-1H-pyrazol-3-yl)cyclohexanecarboxamide]	452	0.99
Cc1c(-c2ccc(N3CCS(=N)(=O)CC3)cc2)c([C@@H]2CCCC[C@H]2C(=O)N[C@H](C#N)C(C)C)nn1-c1ncccc1F [Example 52, (1R,2R)-N-((S)-1-cyano-2-methylpropyl)-2-(1-(3-fluoropyridin-2-yl)-4-(4-(1-imino-1-oxidothiomorpholino)phenyl)-5-methyl-1H-pyrazol-3-yl)cyclohexanecarboxamide]	9320	22.5
N#CC1(NC(=O)[C@@H]2CC(F)(F)CC[C@H]2c2nn(-c3ccc(F)cn3)c(CF)c2-c2ccc(N3CCS(=O)(=O)CC3)cc2)CC1 [Example 62, (1R,2R)-N-(1-cyanocyclopropyl)-2-(4-(4-(1,1-dioxidothiomorpholino)phen-yl)-5-(fluoromethyl)-1-(5-fluoropyridin-2-yl)-1H-pyrazol-3-yl)-5,5-difluorocyclohexanecarbox-amide]	151	1.33
N#CC1(NC(=O)[C@@H]2CCCC[C@H]2c2nn(-c3ccc(F)cc3)cc2-c2ccc(N3CCS(=N)(=O)CC3)cc2)CC1 [Example 129, (1R,2R)-N-(1-cyanocyclopropyl)-2-(1-(4-fluorophenyl)-4-(4-(1-imino-1-oxidothiomorpholino)phenyl)-1H-pyrazol-3-yl)cyclohexanecarboxamide]	932	1.84
CC(C)[C@@H](C#N)NC(=O)[C@@H]1CCC(F)(F)C[C@H]1c1nn(-c2ncccc2F)cc1-c1ccc(N2CCS(=O)(=O)CC2)cc1 [Example 32, (1R,2R)-N-((S)-1-cyano-2-methylpropyl)-2-(4-(4-(1,1-dioxidothiomorpholino)phen-yl)-1-(3-fluoropyridin-2-yl)-1H-pyrazol-3-yl)-4,4-difluorocyclohexanecarbox-amide]	2780	7.11
N#CC1(NC(=O)[C@@H]2CCCC[C@H]2c2nn(-c3ncccc3F)cc2-c2ccc(N3CCS(=O)(=O)CC3)cc2)CC1 [Example 144, (1R,2R)-N-(1-cyanocyclopropyl)-2-(4-(4-(1,1-dioxidothiomorpholino)phen-yl)-1-(3-fluoropyridin-2-yl)-1H-pyrazol-3-yl)cyclohexanecarboxamide]	3060	5.59
N#CC1(NC(=O)[C@@H]2CCCC[C@H]2c2nn(-c3ccccc3C(F)(F)F)cc2-c2ccc(N3CCS(=O)(=O)CC3)cc2)CC1 [Example 120, (1R,2R)-N-(1-cyanocyclopropyl)-2-(4-(4-(1,1-dioxidothiomorpholino)phen-yl)-1-(2-(trifluoromethyl)phenyl)-1H-pyrazol-3-yl)cyclohexanecarboxamide]	3120	6.72
N#CC1(NC(=O)[C@@H]2CCCC[C@H]2c2nn(-c3cc(F)c(F)c(F)c3)cc2-c2ccc(N3CCS(=O)(=O)CC3)cc2)CC1 [Example 128, (1R,2R)-N-(1-cyanocyclopropyl)-2-(4-(4-(1,1-dioxidothiomorpholino)phen-yl)-1-(3,4,5-trifluorophenyl)-1H-pyrazol-3-yl)cyclohexanecarboxamide]	319	0.79
CN=S1(=O)CCN(c2ccc(-c3cn(-c4ccc(F)cc4)nc3[C@@H]3CCCC[C@H]3C(=O)NC3(C#N)CC3)cc2)CC1 [Example 130, (1R,2R)-N-(1-cyanocyclopropyl)-2-(1-(4-fluorophenyl)-4-(4-(1-(methylimino)-1-oxidothiomorpholino)phenyl)-1H-pyrazol-3-yl)cyclohexanecarboxamide]	854	1.92
N#CC1(NC(=O)[C@@H]2CCCC[C@H]2c2nn(-c3ccc(Cl)cc3)cc2-c2ccc(N3CCS(=O)(=O)CC3)cc2)CC1 [Example 95, (1R,2R)-2-(1-(4-chlorophenyl)-4-(4-(1,1-dioxidothiomorpholino)phen-yl)-1H-pyrazol-3-yl)-N-(1-cyanocyclopropyl)cyclohex-anecarboxamide]	402	0.73
N#CC1(NC(=O)[C@@H]2CCCC[C@H]2c2nn(-c3ccc(-n4cccn4)cc3)cc2-c2ccc(N3CCS(=O)(=O)CC3)cc2)CC1 [Example 123, (1R,2R)-2-(1-(4-(1H-pyrazol-1-yl)phenyl)-4-(4-(1,1-dioxidothiomorpholino)phen-yl)-1H-pyrazol-3-yl)-N-(1-cyanocyclopropyl)cyclohex-anecarboxamide]	593	0.96
N#CCNC(=O)[C@@H]1CC(F)(F)CC[C@H]1c1nn(-c2ccc(F)cc2)cc1-c1ccc(N2CCS(=O)(=O)CC2)cc1 [Example 81, (1R,2R)-N-(cyanomethyl)-2-(4-(4-(1,1-dioxidothiomorpholino)phen-yl)-1-(4-fluorophenyl)-1H-pyrazol-3-yl)-5,5-difluorocyclohexanecarbox-amide]	11	0.37
N#CC1(NC(=O)[C@@H]2CC3CC3C[C@H]2c2nn(-c3ccc(Cl)cn3)cc2-c2ccc(N3CCS(=O)(=O)CC3)cc2)CC1 (single isomer, unassigned) [Example 155]	197	0.56
CN=S1(=O)CCN(c2ccc(-c3cn(-c4ccc(F)cn4)nc3[C@@H]3CC[C@H](F)C[C@H]3C(=O)NC3(C#N)CC3)cc2)CC1 [Example 17, (1R,2R,5S)-N-(1-cyanocyclopropyl)-5-fluoro-2-(1-(5-fluoropyridin-2-yl)-4-(4-(1-(methylimino)-1-oxidothiomorpholino)phenyl)-1H-pyrazol-3-yl)cyclohexanecarboxamide]	1410	3.22
N#CC1(NC(=O)[C@@H]2CCCC[C@H]2c2nn(-c3ccc4[nH]ccc4c3)cc2-c2ccc(N3CCS(=O)(=O)CC3)cc2)CC1 [Example 137, (1R,2R)-N-(1-cyanocyclopropyl)-2-(4-(4-(1,1-dioxidothiomorpholino)phen-yl)-1-(1H-indol-5-yl)-1H-pyrazol-3-yl)cyclohexanecarboxamide]	2830	8.43
C[C@@H](C#N)NC(=O)[C@@H]1CCCC[C@H]1c1nn(-c2ccc(F)cc2)c(CO)c1-c1ccc(N2CCS(=O)(=O)CC2)cc1 [Example 64, (1R,2R)-N-((S)-1-cyanoethyl)-2-(4-(4-(1,1-dioxidothiomorpholino)phen-yl)-1-(4-fluorophenyl)-5-(hydroxymethyl)-1H-pyrazol-3-yl)cyclohexanecarboxamide]	565	4.61
N#CC1(NC(=O)[C@@H]2CCCC[C@H]2c2nn(-c3ccc(C(F)(F)F)cc3)cc2-c2ccc(N3CCS(=O)(=O)CC3)cc2)CC1 [Example 121, (1R,2R)-N-(1-cyanocyclopropyl)-2-(4-(4-(1,1-dioxidothiomorpholino)phen-yl)-1-(4-(trifluoromethyl)phenyl)-1H-pyrazol-3-yl)cyclohexanecarboxamide]	649	3.08
N#Cc1ccc(-n2cc(-c3ccc(N4CCS(=O)(=O)CC4)cc3)c([C@@H]3CCCC[C@H]3C(=O)NC3(C#N)CC3)n2)c(Cl)c1 [Example 104, (1R,2R)-2-(1-(2-chloro-4-cyanophenyl)-4-(4-(1,1-dioxidothiomorpholino)phen-yl)-1H-pyrazol-3-yl)-N-(1-cyanocyclopropyl)cyclohex-anecarboxamide]	411	2.02
N#CC1(NC(=O)[C@@H]2CCCC[C@H]2c2nn(-c3cc(F)cc(F)c3)cc2-c2ccc(N3CCS(=O)(=O)CC3)cc2)CC1 [Example 118, (1R,2R)-N-(1-cyanocyclopropyl)-2-(1-(3,5-difluorophenyl)-4-(4-(1,1-dioxidothiomorpholino)phen-yl)-1H-pyrazol-3-yl)cyclohexanecarboxamide]	273	0.54
